Results reported in patent US20260042764A1, “COMPOSITIONS AND METHODS FOR INHIBITION OF KRAS” (TheRas, Inc., priority 2022, published 2026).

Assays:
HPAC cells (KRAS G12D) [1] = test: 3D Cell viability assay in HPAC cells (Biological Example 6); type: cell-based; conditions: HPAC (KRAS G12D) spheroids
Experimental: (§1) Biological Example 6: 3D Cell viability assay in AsPC-1, SW1900, HPAC, Capan-2, RKN, H358, HCT116, KP-2, H1573, A549, MKN1, and HT1080 cells
(§2) The inhibition of cellular viability as a result of test compound treatment in a spheroid assay was measured using the CellTiter-Glow 3D Cell Viability Assay (Promega).
(§3) On Day 1, 1000 cells per well were seeded in 150 μL of complete growth media supplemented with 10% fetal bovine serum (FBS) and incubated at 37° C., in the presence of 5% CO2 in 96-well ultra-low attachment microplates (Corning) for 48 hours undisturbed to allow spheroids to form.
(§4) Following spheroid formation, cells were treated with compounds diluted in DMSO at 0.25% final DMSO concentration. Compounds were dosed in a 9-point concentration curve with three-fold dilution between concentrations. Cells were incubated in the presence of compound for 72 hours at 37° C., in the presence of 5% CO2.
(§5) Following this incubation period, the kit-provided CTG reagent was allowed to equilibrate for 30 minutes at room temperature, 150 μL of equilibrated CTG reagent was added to each well, and the plate was sealed before shaking at 250 rpm for 10 minutes at room temperature to lyse the cells, 150 μL of lysate per well was transferred to a 96-well plate and luminescence was read on a CLARIOstar plate reader.
(§6) Data was imported into the Prism software package (Graphpad) and EC50 values were calculated using the log (inhibitor) vs, response—variable slope (Four parameters) model.

HPAC cells (KRAS G12D) [2] = test: Cell-based pERK HTRF assay in HPAC cells (Biological Example 5)
Experimental: (§7) Biological Example 5: Cell-based PERK HTRF assay in AsPC-1, SW1900, HPAC, Capan-2, RKN, H358, HCT116, KP-2, H1573, A549, MKN1, and HT1080 cells
(§8) The inhibition of ERK phosphorylation, as measured using the HTRF Advanced Phospho-ERK 1/2 (Thr202/Tyr204) Detection Assay kit (Perkin Elmer), was used to determine the effectiveness of test compounds in disrupting KRAS-driven protein/effector signaling in cells.
(§9) On day 1, cells were seeded into 96-well plates at 2.5×10^4 cells/well in 100 μL of complete growth media supplemented with 10% fetal bovine serum (FBS) and incubated at 37° C., in the presence of 5% CO2.
(§10) On day 2, cells were treated with compounds diluted in DMSO at 0.25% final DMSO concentration. Compounds were dosed in a 9-point concentration curve with three-fold dilution between concentrations. Cells were incubated in the presence of compound for two hours at 37° C. Following this treatment period, cells were harvested by aspirating the media, adding 40 μL of kit-supplied 1x lysis buffer per well, and shaking for 30 minutes at 250 rpm at room temperature.
(§11) Following cell lysis, samples were homogenized by pipetting up and down twenty times and 16 μL of cell lysate per well was transferred from the 96-well cell culture plate to two wells of a 384-well detection plate. A complete detection buffer was prepared by diluting D2 and Eu Cryptate antibodies 1:20 in kit-provided detection solution, 4 μL of complete detection buffer was then added to each well with lysate. Plates were incubated with gentle rocking for 24 hours at 4° C.
(§12) Following this incubation period, plates were centrifuged at 500×g for one minute and analyzed on a CLARIOstar plate reader. Data was imported into Microsoft Excel and the signal from the 665 nm channel was divided by the signal from the 620 nm channel. % pERK was calculated as: […]
(§13) Data was imported to the Prism software package (Graphpad) and EC50 values were calculated using the log (inhibitor) vs, response—variable slopc (Four parameters) model.

[3] = molecular target: T1, Avi-KRAS G12C (2-169) GTP/RAF1 RBD-3xFLAG (51-131) (Homo sapiens, UniProt P01116, G12C); test: Raf1-KRAS G12C-GTP disruption HTRF assay (Biological Example 3); type: binding; conditions: KRAS G12C, GTP-loaded
T1 construct: Avi-KRAS G12C (2-169)
T1 sequence (P01116 2-169 isoform P01116-2 G12C): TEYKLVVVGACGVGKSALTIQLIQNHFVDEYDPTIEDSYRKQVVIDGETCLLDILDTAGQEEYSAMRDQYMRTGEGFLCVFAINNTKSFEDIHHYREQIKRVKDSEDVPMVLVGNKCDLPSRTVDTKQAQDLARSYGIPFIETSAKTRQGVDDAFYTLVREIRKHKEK
Method in brief: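 Compounds were titrated 10-point, 3-fold from 30 μM against preformed KRAS-GTP:RAF1 RBD (51-131) complexes at 50 nM, using KRAS 2-169 as WT, G12C, G12D or G12V. After 1 h at room temperature in Tris pH 7.5 buffer with MgCl2 and 10% DMSO, time-resolved fluorescence was read. Results are percent activity versus DMSO.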

[4] = system: MKN1 cells (KRAS amplification); test: Cell-based pERK HTRF assay in MKN1 cells (Biological Example 5)
Experimental: as §7, §8, §9, §10, §11, §12, §13

AsPC-1 cells (KRAS G12D) = test: 3D Cell viability assay in AsPC-1 cells (Biological Example 6); type: cell-based; conditions: AsPC-1 (KRAS G12D) spheroids, 72 hours
Experimental: as §1, §2, §3, §4, §5, §6

H358 cells (KRAS G12C) = test: Cell-based pERK HTRF assay in H358 cells (Biological Example 5)
Experimental: as §7, §8, §9, §10, §11, §12, §13

[5] = Homo sapiens, MKN-1, MKN cells (MKN1, KRAS amplification)
[6] = Homo sapiens, NCI-H358, H358 (KRAS G12C) cells

Row | IC50 (HPAC cells (KRAS G12D) [2]; Homo sapiens, HPAC) | IC50 [3] | IC50 [4, 5] | IC50 (AsPC-1 cells (KRAS G12D); Homo sapiens, ASPC1) | IC50 (H358 cells (KRAS G12C); [6]) | IC50 (HPAC cells (KRAS G12D) [2]) | IC50 ([4]; MKN cells (MKN1, KRAS amplification)) | IC50 (AsPC-1 cells (KRAS G12D)) | IC50 (H358 cells (KRAS G12C); H358 (KRAS G12C) cells) | SMILES | IC50 (HPAC cells (KRAS G12D) [1]; Homo sapiens, HPAC, 72 h) | IC50 (HPAC cells (KRAS G12D) [1]; 72 hours)
1 | ≤ 100 nM | – | ≤ 100 nM | ≤ 100 nM | ≤ 100 nM | – | – | – | – | CCN(c1nc(OC[C@@]23CCCN2C[C@H](F)C3)nc2c(F)c(-c3ccc(F)c4sc(N)c(C#N)c34)c(C(F)(F)F)cc12)[C@@H]1CCN(C(C)=O)C1 [Compound 268] | ≤ 100 nM | –
2 | ≤ 100 nM | ≤ 100 nM | ≤ 100 nM | ≤ 100 nM | ≤ 100 nM | – | – | – | – | CCN(c1nc(OC[C@@]23CCCN2C[C@H](F)C3)nc2c(F)c(-c3ccc(F)c4sc(N)c(C#N)c34)c(C(F)(F)F)cc12)[C@H]1CC(=O)N2CCC[C@@H]12 (atropisomer, axis not shown; (aS)) [Compound 697, 2-amino-4-((S)-4-(ethyl((1S,7aS)-3-oxohexahydro-1H-pyrrolizin-1-yl)amino)-8-fluoro-2-(((2R,7aS)-2-fluorotetrahydro-1H-pyrrolizin-7a(5H)-yl)methoxy)-6-(trifluoromethyl)quinazolin-7-yl)-7-fluorobenzo[b]thiophene-3-carbonitrile] | ≤ 100 nM | –
3 | ≤ 100 nM | ≤ 100 nM | ≤ 100 nM | ≤ 100 nM | ≤ 100 nM | – | – | – | – | C/C=C/C(=O)N1CC[C@H](N(CC)c2nc(OC[C@@]34CCCN3C[C@H](F)C4)nc3c(F)c(-c4ccc(F)c5sc(N)c(C#N)c45)c(C(F)(F)F)cc23)C1 (atropisomer, axis not shown) [Compound 674] | ≤ 100 nM | –
4 | ≤ 100 nM | – | ≤ 100 nM | ≤ 100 nM | ≤ 100 nM | – | – | – | – | CCN(c1nc(OC[C@@]23CCCN2C[C@H](F)C3)nc2c(F)c(-c3ccc(F)c4sc(N)c(C#N)c34)c(C(F)(F)F)cc12)[C@H]1CCN(C(C)=O)C1 [Compound 262] | ≤ 100 nM | –
5 | > 1000 nM | – | ≤ 100 nM | ≤ 100 nM | ≤ 100 nM | – | – | – | – | CCN(c1nc(OC[C@@]23CCCN2C[C@H](F)C3)nc2c(F)c(-c3ccc(F)c4sc(N)c(C#N)c34)c(C(F)(F)F)cc12)[C@H]1CCN(C(=O)C2CC2)[C@@H]1C (atropisomer, axis not shown) [Compound 579] | 100 to 1000 nM | –
6 | 100 to 1000 nM | – | ≤ 100 nM | ≤ 100 nM | ≤ 100 nM | – | – | – | – | CCN(c1nc(OC[C@@]23CCCN2C[C@H](F)C3)nc2c(F)c(-c3ccc(F)c4sc(N)c(C#N)c34)c(C(F)(F)F)cc12)[C@H]1C[C@H](C)N(C(C)=O)C1 [Compound 463] | > 1000 nM | –

Further lines, the compound ahead of its results:

Row | SMILES | IC50 (HPAC cells (KRAS G12D) [2]; Homo sapiens, HPAC) | IC50 [3] | IC50 [4, 5] | IC50 (AsPC-1 cells (KRAS G12D); Homo sapiens, ASPC1) | IC50 (H358 cells (KRAS G12C); [6]) | IC50 (HPAC cells (KRAS G12D) [2]) | IC50 ([4]; MKN cells (MKN1, KRAS amplification)) | IC50 (AsPC-1 cells (KRAS G12D)) | IC50 (H358 cells (KRAS G12C); H358 (KRAS G12C) cells) | IC50 (HPAC cells (KRAS G12D) [1]; Homo sapiens, HPAC, 72 h) | IC50 (HPAC cells (KRAS G12D) [1]; 72 hours)
7 | C[C@H]1Cn2nc(C(=O)N(C)C)cc2CN1c1nc(OC[C@@]23CCCN2C[C@H](F)C3)nc2c(F)c(-c3ccc(F)c4sc(N)c(C#N)c34)c(C(F)(F)F)cc12 (atropisomer, axis not shown) [Compound 610] | ≤ 100 nM | 100 to 1000 nM | ≤ 100 nM | ≤ 100 nM | ≤ 100 nM | – | – | – | – | 100 to 1000 nM | –
8 | CCC(=O)N1C[C@@H](N(CC)c2nc(OC[C@@]34CCCN3C[C@H](F)C4)nc3c(F)c(-c4ccc(F)c5sc(N)c(C#N)c45)c(C(F)(F)F)cc23)C[C@H]1C [Compound 442] | ≤ 100 nM | – | ≤ 100 nM | ≤ 100 nM | ≤ 100 nM | – | – | – | – | 100 to 1000 nM | –
9 | CCN(c1nc(OC[C@@]23CCCN2C[C@H](F)C3)nc2c(F)c(-c3ccc(F)c4sc(N)c(C#N)c34)c(C(F)(F)F)cc12)[C@H]1C[C@H](C)N(C(=O)[C@@H]2CC2(F)F)C1 (atropisomer, axis not shown) [Compound 751] | ≤ 100 nM | – | ≤ 100 nM | ≤ 100 nM | ≤ 100 nM | – | – | – | – | ≤ 100 nM | –
10 | CCN(c1nc(OC[C@@]23CCCN2C[C@H](F)C3)nc2c(F)c(-c3ccc(F)c4sc(N)c(C#N)c34)c(C(F)(F)F)cc12)[C@H]1C[C@H](C)N(C(=O)N2CC(OC)C2)C1 (atropisomer, axis not shown) [Compound 764] | 100 to 1000 nM | 100 to 1000 nM | ≤ 100 nM | ≤ 100 nM | ≤ 100 nM | – | – | – | – | > 1000 nM | –
11 | N#Cc1cnn2c1CN(c1nc(OC[C@@]34CCCN3C[C@H](F)C4)nc3c(F)c(-c4ccc(F)c5sc(N)c(C#N)c45)c(C(F)(F)F)cc13)CC2 [Compound 392] | ≤ 100 nM | – | ≤ 100 nM | ≤ 100 nM | ≤ 100 nM | – | – | – | – | 100 to 1000 nM | –
12 | CCN(c1nc(OC[C@@]23CCCN2C[C@H](F)C3)nc2c(F)c(-c3ccc(F)c4sc(N)c(C#N)c34)c(C(F)(F)F)cc12)[C@H]1C[C@@H](C)N(C(=O)C2COC2)C1 (atropisomer, axis not shown) [Compound 586] | 100 to 1000 nM | – | ≤ 100 nM | ≤ 100 nM | ≤ 100 nM | – | – | – | – | ≤ 100 nM | –
13 | Cc1c(C(=O)N(C)C)nn2c1CN(c1nc(OC[C@@]34CCCN3C[C@H](F)C4)nc3c(F)c(-c4ccc(F)c5sc(N)c(C#N)c45)c(C(F)(F)F)cc13)CC2 (atropisomer, axis not shown; (aS)) [Compound 590, 5-((S)-7-(2-amino-3-cyano-7-fluorobenzo[b]thiophen-4-yl)-8-fluoro-2-(((2R,7aS)-2-fluorotetrahydro-1H-pyrrolizin-7a(5H)-yl)methoxy)-6-(trifluoromethyl)quinazolin-4-yl)-N,N,3-trimethyl-4,5,6,7-tetrahydropyrazolo[1,5-a]pyrazine-2-carboxamide] | – | – | – | – | – | ≤ 100 nM | ≤ 100 nM | ≤ 100 nM | ≤ 100 nM | – | ≤ 100 nM
14 | CN(Cc1cccnc1N)c1nc(OC[C@@]23CCCN2C[C@H](F)C3)nc2c(F)c(-c3ccc(F)c4sc(N)c(C#N)c34)c(C(F)(F)F)cc12 [Compound 390] | ≤ 100 nM | – | ≤ 100 nM | ≤ 100 nM | ≤ 100 nM | – | – | – | – | 100 to 1000 nM | –
